Data taken from publication PMC2228077, “The bioavailability of oral GI147211 (GG211), a new topoisomerase I inhibitor” (British Journal of Cancer, 1997).
Where a name gives a salt, the structure may show the parent alone. Read-outs that look alike come from different tables or passages of the source.

What was measured:
[1] = dog, in vivo; cited from earlier work
[2] = parameters: method as in Gerrits et al, 1996; conditions: i.v. daily x5 every 3 weeks; ref Gerrits et al, 1996; cited from earlier work
[3] = mouse, in vivo; cited from earlier work
[4] = Toxicity assessment (CTC criteria) in patients, oral day 1 + i.v. days 2-5 every 3 weeks; type: in vivo, human; conditions: for Abdominal discomfort, drug-related toxicity per course / Diarrhoea, drug-related toxicity per course / Nausea, drug-related toxicity per course / Stomatitis, drug-related toxicity per course: CTC grade 1; for Abdominal discomfort, drug-related toxicity per course / Diarrhoea, drug-related toxicity per course / Nausea, drug-related toxicity per course / Stomatitis, drug-related toxicity per course / Fatigue, drug-related toxicity per course / Vomiting, drug-related toxicity per course: Table 2
Excerpt: British Journal of Cancer (1997) 76(7), 946-951 ? 1997 Cancer Research Campaign The bloavailability of oral Gil 47211 (GG21 1), a new topoisomerase I inhibitor CJH Gerrits', JHM Schellens', GJ Creemers', P Wissel2, ASTh Planting', JF Pritchard2, S DePee2, M de Boer-Dennert', M Harteveld' and J Verweij' 'Department of Medical Oncology, Rotterdam Cancer Institute (Daniel den Hoed Kliniek) and University Hospital, The Netherlands; 2Glaxo Wellcome, Department of Pharmacokinetics, NC, USA Summary Topoisomerase I inhibitors are new compounds of interest for cancer chemotherapy. We performed a study with Gl147211, a new semisynthetic camptothecin analogue, to determine the absolute bioavailability of the drug given orally. […] Gi147211 was given orally on day 1 and as a 30-min infusion daily on days 2-5. The treatment course was repeated every 3 weeks. In subsequent patient cohorts, the dose of the oral formulation was escalated from 1.5 mg m-2 to 6.0 mg m-2; the dose for i.v. administration was fixed at 1.2 mg m-2. Plasma pharmacokinetics was performed on day 1 and 2 of the first course and on day 1 of the second course using a validated high-performance liquid chromatographic assay. […] Keywords: G1147211 (GG211); bioavailability; topoisomerase I inhibitor; phase I study G1147211 [7-(methylpiperazinomethylene)-10,11-ethylenedioxy- 20(S)-camptothecin dihydrochloride] is a water-soluble semisyn- thetic analogue of camptothecin (CPT). […] Its further development was stopped because of unpredictable and severe myelosuppression, gastro- intestinal toxicity and haemorrhagic cystitis (Gottlieb et al, 1970; Creaven et al, 1972; Muggia et al, 1972). Interest in CPT was renewed in the 1980s, because topoiso- merase I was identified as the single cellular target of CPT (Hsiang et al, 1988 1989), and an overexpression of topoisomerase I was found in various tumour cell lines but not in normal tissues (Giovanella et al, 1989; Hirabayashi et al, 1992). Topoisomerase I is a nuclear enzyme that resolves topological problems of the torsionally strained (supercoiled) DNA by forming a covalent adduct between topoisomerase I and the DNA, termed the cleav- able complex. This catalytic intermediate creates single-strand DNA breaks, allowing the DNA molecule to rotate around the intact DNA strand at the cleavage site, leading to a relaxation of Received 29 November 1996 Revised 27 March 1997 Accepted 1 April 1997 Correspondence to: CJH Gerrits, Department of Medical Oncology, Rotterdam Cancer Institute, (Daniel den Hoed Kliniek) and University Hospital, Groene Hilledijk 301, 3075 EA Rotterdam, The Netherlands the DNA molecule, and in this way replication, transcription and other DNA functions can proceed. These enzyme-bridged breaks are then resealed by topoisomerase I (Champoux, 1976; Muller, 1985; Muller et al, 1985; Camilloni et al, 1989). […] It has been documented that camptothecin (CPT) interferes with the breakage-reunion process of topoiso- merase I by stabilizing the enzyme-DNA cleavable complexes (Liu et al, 1989).

[5] = intravenous route; cited from earlier work
solid tumour = assay: Tumour response (WHO criteria) in patients; type: in vivo, human; conditions: 17 evaluable patients
Excerpt: British Journal of Cancer (1997) 76(7), 946-951 ? 1997 Cancer Research Campaign The bloavailability of oral Gil 47211 (GG21 1), a new topoisomerase I inhibitor CJH Gerrits', JHM Schellens', GJ Creemers', P Wissel2, ASTh Planting', JF Pritchard2, S DePee2, M de Boer-Dennert', M Harteveld' and J Verweij' 'Department of Medical Oncology, Rotterdam Cancer Institute (Daniel den Hoed Kliniek) and University Hospital, The Netherlands; 2Glaxo Wellcome, Department of Pharmacokinetics, NC, USA Summary Topoisomerase I inhibitors are new compounds of interest for cancer chemotherapy. We performed a study with Gl147211, a new semisynthetic camptothecin analogue, to determine the absolute bioavailability of the drug given orally. […] Gi147211 was given orally on day 1 and as a 30-min infusion daily on days 2-5. The treatment course was repeated every 3 weeks. In subsequent patient cohorts, the dose of the oral formulation was escalated from 1.5 mg m-2 to 6.0 mg m-2; the dose for i.v. administration was fixed at 1.2 mg m-2. Plasma pharmacokinetics was performed on day 1 and 2 of the first course and on day 1 of the second course using a validated high-performance liquid chromatographic assay. […]

[6] = oral 6.0 mg m-2 level, discussion

## CC[C@@]1(O)C(=O)OCc2c1cc1n(c2=O)Cc2c-1nc1cc3c(cc1c2CN1CCN(C)CC1)OCCO3 [GI147211, 7-(methylpiperazinomethylene)-10,11-ethylenedioxy-20(S)-camptothecin dihydrochloride]
[1]
  absolute bioavailability: 16%
[2]
  main toxicity: myelosuppression
[3]
  absolute bioavailability: 2-5%
[4]; 6.0 mg m-2 level, the one case with CTC grade IV
  ANC nadir: 9e+07 L⁻¹
[4]; CTC grade I-II anaemia occurred regularly
  courses in which erythrocyte transfusions were given: 24 out of 47
[4]; CTC grade III-IV thrombocytopenia
  platelet count, range: 4-40 x 109 l-1
[4]; Table 2 footnote c
  courses with fatigue CTC grade II: Four
[4]; Total, n = 47 courses
  Abdominal discomfort, drug-related toxicity per course: 6 courses
  Diarrhoea, drug-related toxicity per course: 1 courses
  Nausea, drug-related toxicity per course: 24 courses
  Stomatitis, drug-related toxicity per course: 2 courses
  Fatigue, drug-related toxicity per course: 16 courses
[4]; first two dose levels (1.5 and 3.0 mg m-2 oral)
  myelotoxicity: not observed
[4]; human, in vivo
  duration of severe granulocytopenia, range: 7 to 19 days
  duration of severe thrombocytopenia, range: 3 to 16 days
  median duration of severe granulocytopenia (first occurrence to recovery to CTC grade II): 7 days
  median duration of severe thrombocytopenia (first occurrence to recovery to CTC grade II): 8 days
  nausea and vomiting after oral administration compared with intravenous dosing: not different
  neutropenic sepsis (main serious adverse event): one
  patients complaining of mild fatigue: 34%
  patients with treatment delay because of slow recovery of mild leucopenia: six
  renal and liver toxicity: not reported
[4]; human, in vivo, po
  diarrhoea after a single oral administration: did not result in diar- rhoea
  tolerability of oral administration: well tolerated
[4]; of 47 courses
  courses with mild leucopenia CTC grade I-II: 17 courses
  mild leucopenia CTC grade I-II, share of courses: 36.2%
  nausea CTC grade I, share of courses: 51.6%
  vomiting CTC grade I, number of courses: 9 courses
  vomiting CTC grade I, share of courses: 19.1%
[4]; one patient
  reversible CTC grade I peripheral neuropathy: 2.1%
[4]; [6]
  day of the platelet nadir: 8 days
  day of the platelet nadir, range: 3 to 16 days
[4]; oral 6.0 mg m-2 day 1 + i.v. 1.2 mg m-2 days 2-5, discussion
  onset of neutropenia CTC grade III-IV: 7 to 19 days
[4]; oral dose level 1.5 mg m-2
  Abdominal discomfort, drug-related toxicity per course: 0 courses
  Diarrhoea, drug-related toxicity per course: 0 courses
  Nausea, drug-related toxicity per course: 4 courses
  Stomatitis, drug-related toxicity per course: 0 courses
  Fatigue, drug-related toxicity per course: 4 courses
  Vomiting, drug-related toxicity per course: 2 courses
[4]; oral dose level 3.0 mg m-2
  Abdominal discomfort, drug-related toxicity per course: 3 courses
  Diarrhoea, drug-related toxicity per course: 0 courses
  Nausea, drug-related toxicity per course: 4 courses
  Stomatitis, drug-related toxicity per course: 1 courses
  Fatigue, drug-related toxicity per course: 2 courses
  Vomiting, drug-related toxicity per course: 2 courses
[4]; oral dose level 6.0 mg m-2
  courses postponed for 1 week because of mild leucopenia with slow recovery: 10 out of 30
  courses with CTC grade III-IV granulocytopenia: 5 out of 30
  courses with CTC grade III-IV thrombocytopenia: 4 out of 30
  Abdominal discomfort, drug-related toxicity per course: 3 courses
  Diarrhoea, drug-related toxicity per course: 1 courses
  Nausea, drug-related toxicity per course: 16 courses
  Stomatitis, drug-related toxicity per course: 1 courses
  Fatigue, drug-related toxicity per course: 10 courses
  Vomiting, drug-related toxicity per course: 7 courses
[4]; six courses
  abdominal discomfort, mostly cramping, share of courses: 13%
[4]; summary
  nadir for neutropenia: 8 days
  nadir for thrombocytopenia: 15 days
[4]; three patients
  alopecia grade I, share of patients: 17%
[4]; three patients with CTC grade III-IV thrombocytopenia
  median platelet count: 2.5e+10 L⁻¹
[4]; two courses, not dose dependent
  mild headache, share of courses: 4.2%
[4]; two cycles
  vomiting CTC grade II, share of cycles: 4.2%
[5]
  main toxicity in animal toxicology studies: myelosuppression was the main toxicity and was dose limiting
Solid tumour
  best response to treatment: stable disease in seven patients
